In the supplement of paper PMC7840683:

System: HepaRG
Test: LDH release cytotoxicity, % of total lysis control; higher = more cytotoxic
Conditions: 48 h
Outline: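 Eight-point half-log series of test chemicals, the highest at 100 µM, were given in duplicate for 48 h to single-lot HepaRG cells on collagen I-coated 96-well plates in serum-free induction medium with 0.5% DMSO. A Tecan Safire read resorufin fluorescence from CytoTox-ONE as a measure of LDH in 50 µL spent medium, with 0.1% Triton X in total lysis wells. Percent cytotoxicity was normalized to on-plate vehicle and total lysis controls and averaged over the duplicates.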

CCC(C)N(C)C(=O)c1cc2ccccc2c(-c2ccccc2Cl)n1 (centres undefined)
Conditions | LDH release cytotoxicity [%]
0.02008 µM | -1.37
0.0635 µM | -2.28
0.200805 µM | -3.22
0.635 µM | -3.04
2.00805 µM | -2.99
6.35 µM | -2.9
20.0805 µM | -1.43
63.5 µM | 7.06

CCc1cc(SCc2sc(-c3ccc(C(F)(F)F)cc3)nc2CN2CCN(c3ccc(OC)cc3)CC2)ccc1OCC(=O)O
Conditions | LDH release cytotoxicity [%]
0.03162 µM | -1.41
0.1 µM | -1.04
0.3162278 µM | -0.879
1 µM | -1.49
3.16228 µM | -2.29
10 µM | 21
31.6228 µM | 70.2
100 µM | 84

CCc1nn(C2CCCCC2)c2cc(C3(C#N)CCC(C(=O)O)CC3)ccc12 (centres undefined)
Conditions | LDH release cytotoxicity [%]
0.03162 µM | -0.818
0.1 µM | -1.01
0.3162278 µM | -0.56
1 µM | -1.9
3.16228 µM | -1.26
10 µM | -1.43
31.6228 µM | 1.5
100 µM | 7.65

CCC1CC(N(Cc2cc(C(F)(F)F)cc(C(F)(F)F)c2)C(C)=O)c2cc(C(F)(F)F)ccc2N1C(=O)OC(C)C (centres undefined)
Conditions | LDH release cytotoxicity [%]
0.03162 µM | -0.374
0.1 µM | 0.141
0.3162278 µM | -0.658
1 µM | -0.248
3.16228 µM | -1.3
10 µM | 0.748
31.6228 µM | 3.11
100 µM | 7.54

CCC1CCC(NCc2cc3c(cc2OC)C2CC2C(=O)N3C)C(c2ccccc2)N1 (centres undefined)
Conditions | LDH release cytotoxicity [%]
0.03162 µM | -1.16
0.1 µM | -1.78
0.3162278 µM | -0.445
1 µM | -1.5
3.16228 µM | -0.96
10 µM | -0.794
31.6228 µM | 0.439
100 µM | 7.84

CCCCc1nc2cccnc2n1Cc1ccc(-c2ccccc2-c2nnn[nH]2)cc1
Conditions | LDH release cytotoxicity [%]
0.03162 µM | -0.82
0.1 µM | -1.42
0.3162278 µM | -0.874
1 µM | -0.211
3.16228 µM | -0.956
10 µM | -0.404
31.6228 µM | -0.609
100 µM | 1.6

CCCCC1CN(CC2CCOCC2)C(=O)OC12CCN(C1(C)CCN(C(=O)c3c(C)ncnc3C)CC1)CC2 (centres undefined)
Conditions | LDH release cytotoxicity [%]
0.02846 µM | -1.26
0.09 µM | -1.45
0.284605 µM | -0.87
0.9 µM | -1.55
2.84605 µM | -1.48
9 µM | -1.68
28.4605 µM | -0.822
90 µM | -0.451

CCCN(C1CCN(C(=O)C2CCNCC2)CC1)C1CCc2ccc(OC)cc2C1 (centres undefined)
Conditions | LDH release cytotoxicity [%]
0.03162 µM | -0.976
0.1 µM | -1.04
0.3162278 µM | -2.19
1 µM | -1.39
3.16228 µM | -1.79
10 µM | -1.52
31.6228 µM | 0.507
100 µM | 45.7

CCCOc1ccc(S(=O)(=O)N2CCN(CC)CC2)cc1-c1nc2c(CC)n(Cc3ccccn3)nc2c(=O)[nH]1
Conditions | LDH release cytotoxicity [%]
0.03162 µM | -0.95
0.1 µM | -1.66
0.3162278 µM | -1.8
1 µM | -1.82
3.16228 µM | -1.41
10 µM | -1.21
31.6228 µM | -0.893
100 µM | 5.44

CCN(C(=O)c1cc(C)cc(OCC(C)Nc2ccncc2)c1)C(C)C (centres undefined)
Conditions | LDH release cytotoxicity [%]
0.02135 µM | -1.12
0.0675 µM | -0.177
0.2134537 µM | -0.209
0.675 µM | 0.1
2.13454 µM | -0.21
6.75 µM | -0.0445
21.345374 µM | 0.884
67.5 µM | 19

CCN(Cc1cccnc1)C(=O)c1cccc(Cl)c1C1(C)C(=O)N(Cc2ccc(OC)cc2OC)c2ccc(Cl)cc21 (centres undefined)
Conditions | LDH release cytotoxicity [%]
0.02988 µM | -0.884
0.0945 µM | -1.62
0.298835 µM | -1.35
0.945 µM | -1.68
2.98835 µM | -2.31
9.45 µM | 1.33
29.8835 µM | 7.13
94.5 µM | 11.6

CCn1nc(C)c2c1C(=O)NCC(c1ccc(O)cc1)=N2
Conditions | LDH release cytotoxicity [%]
0.03162 µM | -0.976
0.1 µM | -1.16
0.3162278 µM | -0.653
1 µM | -0.0547
3.16228 µM | 0.209
10 µM | 0.546
31.6228 µM | 1.6
100 µM | 3.89

CCOC(=O)c1ccc(C2CCC(NCC(O)COc3ccc(O)c(NS(C)(=O)=O)c3)CC2)cc1 (centres undefined)
Conditions | LDH release cytotoxicity [%]
0.03162 µM | -1.1
0.1 µM | -1.92
0.3162278 µM | -1.82
1 µM | -2.5
3.16228 µM | -1.76
10 µM | -1.05
31.6228 µM | -1.59
100 µM | -0.279

CCOC(=O)COc1ccc2c(c1)CC(NCC(O)c1cccc(Cl)c1)CC2 (centres undefined)
Conditions | LDH release cytotoxicity [%]
0.02893 µM | -1.56
0.0915 µM | 0.00613
0.289348 µM | -0.98
0.915 µM | -1.71
2.89348 µM | -1.72
9.15 µM | -1.13
28.9348 µM | 1.91
91.5 µM | 10.4

CCOc1cccc(-n2cc(C(=O)N3CCN(c4cc(C(=O)O)c5ccccc5c4)CC3)nc2-c2ccc(C)cc2)c1
Conditions | LDH release cytotoxicity [%]
0.03162 µM | 1.24
0.1 µM | -0.332
0.3162278 µM | 0.167
1 µM | -0.486
3.16228 µM | -0.46
10 µM | -0.211
31.6228 µM | 9.35
100 µM | 44.3

CCOc1cccc(C2(N3CCN(c4ccccc4)CC3)CCC(C)CC2)c1 (centres undefined)
Conditions | LDH release cytotoxicity [%]
0.03162 µM | -1.75
0.1 µM | -2.4
0.3162278 µM | -2.68
1 µM | -2.73
3.16228 µM | -2.22
10 µM | -2.03
31.6228 µM | -1.97
100 µM | -1.12

CCOc1ccc2c(n1)C(=O)C(C(=O)NCc1ccccc1)C=N2 (centres undefined)
Conditions | LDH release cytotoxicity [%]
0.03162 µM | -1.14
0.1 µM | -1.5
0.3162278 µM | -0.931
1 µM | -1.34
3.16228 µM | -0.884
10 µM | -0.792
31.6228 µM | -1.83
100 µM | -0.163

CC[C@H](C)[C@@H](C(=O)O)n1sc2ccccc2c1=O
Conditions | LDH release cytotoxicity [%]
0.03162 µM | -0.834
0.1 µM | -1.623
0.3162278 µM | -0.553
1 µM | -1.34
3.16228 µM | -1.12
10 µM | -0.759
31.6228 µM | -1.34
100 µM | 0.0312
